How the values were obtained:
[1] = biological target: T1, Amine oxidase [flavin-containing] B (Homo sapiens, UniProt P27338); experiment: Ratio of relative Vmax to Km for recombinant human MAO-B expressed in baculovirus infected BT1 cells assessed as hydrogen peroxide generation rate using benzylamine as substrate at 200 uM preincubated for 30 mins by Amplex Red assay
T1 sequence (P27338 whole entry): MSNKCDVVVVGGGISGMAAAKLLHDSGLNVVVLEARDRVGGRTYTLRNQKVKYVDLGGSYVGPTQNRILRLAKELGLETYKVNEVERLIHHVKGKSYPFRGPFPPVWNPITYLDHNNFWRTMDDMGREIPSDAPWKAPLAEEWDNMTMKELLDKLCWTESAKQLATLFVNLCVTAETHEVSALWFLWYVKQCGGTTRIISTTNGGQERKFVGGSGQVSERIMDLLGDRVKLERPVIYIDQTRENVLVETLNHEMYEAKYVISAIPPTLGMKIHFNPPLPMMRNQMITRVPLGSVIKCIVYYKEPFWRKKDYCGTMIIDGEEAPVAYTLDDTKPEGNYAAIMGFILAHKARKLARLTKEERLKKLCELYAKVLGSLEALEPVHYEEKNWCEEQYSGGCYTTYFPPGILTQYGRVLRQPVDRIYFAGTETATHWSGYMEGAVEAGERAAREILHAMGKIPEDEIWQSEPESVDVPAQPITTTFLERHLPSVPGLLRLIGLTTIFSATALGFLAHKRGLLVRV

[2] = biological target: T2, Amine oxidase [flavin-containing] A (Homo sapiens, UniProt P21397); experiment: Activity at recombinant human MAO-A expressed in baculovirus infected BT1 cells assessed as hydrogen peroxide generation rate per min/mg using p-tyramine as substrate at 200 uM preincubated for 30 mins by Amplex Red assay relative to control
T2 sequence (P21397 whole entry): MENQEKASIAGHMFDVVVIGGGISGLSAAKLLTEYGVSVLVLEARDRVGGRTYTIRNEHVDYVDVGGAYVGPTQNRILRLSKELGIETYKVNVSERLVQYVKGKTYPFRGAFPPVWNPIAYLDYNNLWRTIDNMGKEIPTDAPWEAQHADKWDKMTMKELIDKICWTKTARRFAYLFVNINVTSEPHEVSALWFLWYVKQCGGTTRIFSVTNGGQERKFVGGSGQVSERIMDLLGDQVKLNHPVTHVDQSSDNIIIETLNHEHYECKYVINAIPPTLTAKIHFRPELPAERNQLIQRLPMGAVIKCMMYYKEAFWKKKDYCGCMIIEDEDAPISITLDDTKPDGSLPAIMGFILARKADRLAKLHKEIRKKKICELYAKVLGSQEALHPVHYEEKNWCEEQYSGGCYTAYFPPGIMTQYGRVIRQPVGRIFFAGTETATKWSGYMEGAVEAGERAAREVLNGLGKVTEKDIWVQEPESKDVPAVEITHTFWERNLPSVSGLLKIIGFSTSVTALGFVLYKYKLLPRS

[3] = biological target: T1, Amine oxidase [flavin-containing] B; experiment: Activity at recombinant human MAO-B expressed in baculovirus infected BT1 cells assessed as hydrogen peroxide generation rate per min/mg using benzylamine as substrate at 200 uM preincubated for 30 mins by Amplex Red assay relative to control
[4] = biological target: T1, Amine oxidase [flavin-containing] B; experiment: Activity at recombinant human MAO-B expressed in baculovirus infected BT1 cells assessed as hydrogen peroxide generation rate preincubated for 30 mins by Amplex Red assay
[5] = biological target: T2, Amine oxidase [flavin-containing] A; experiment: Ratio of relative Vmax to Km for recombinant human MAO-A expressed in baculovirus infected BT1 cells assessed as hydrogen peroxide generation rate using p-tyramine as substrate at 200 uM preincubated for 30 mins by Amplex Red assay
[6] = biological target: T2, Amine oxidase [flavin-containing] A; experiment: Activity at recombinant human MAO-A expressed in baculovirus infected BT1 cells assessed as hydrogen peroxide generation rate preincubated for 30 mins by Amplex Red assay; details: 0.5 h
[7] = biological target: T1, Amine oxidase [flavin-containing] B; experiment: Mixed type inhibition of recombinant human MAO-B expressed in baculovirus infected BT1 cells using benzylamine as substrate at 200 uM preincubated for 30 mins by Lineweaver-Burk plot analysis
[8] = biological target: T1, Amine oxidase [flavin-containing] B; experiment: Reversible inhibition of recombinant human MAO-B expressed in baculovirus infected BT1 cells using benzylamine as substrate at 200 uM preincubated for 30 mins by Lineweaver-Burk plot analysis
[9] = biological target: T2, Amine oxidase [flavin-containing] A; experiment: Reversible inhibition of recombinant human MAO-A expressed in baculovirus infected BT1 cells using p-tyramine as substrate by Lineweaver-Burk plot analysis
[10] = biological target: T2, Amine oxidase [flavin-containing] A; experiment: Mixed type inhibition of recombinant human MAO-A expressed in baculovirus infected BT1 cells using p-tyramine as substrate by Lineweaver-Burk plot analysis
[11] = Cytotoxicity against human SH-SY5Y cells after 24 hrs by Annexin V-PE-based flow cytometry; assay type: cell-based; details: for IC50: Homo sapiens, SH-SY5Y; for Activity: human, sh-sy5y
[12] = biological target: T1, Amine oxidase [flavin-containing] B; experiment: Ratio of residual Vmax to Km for recombinant human MAO-B expressed in baculovirus infected BT1 cells assessed as residual activity using benzylamine as substrate at 20 uM preincubated for 30 mins by Amplex Red assay
[13] = biological target: T2, Amine oxidase [flavin-containing] A; experiment: Ratio of residual Vmax to Km for recombinant human MAO-A expressed in baculovirus infected BT1 cells assessed as residual activity using benzylamine as substrate at 20 uM preincubated for 30 mins by Amplex Red assay
[14] = biological target: T2, Amine oxidase [flavin-containing] A; experiment: Inhibition of recombinant human MAO-A expressed in baculovirus infected BT1 cells assessed as residual activity using p-tyramine as substrate at 50 uM at 37 degC
[15] = biological target: T2, Amine oxidase [flavin-containing] A; experiment: Inhibition of recombinant human MAO-A expressed in baculovirus infected BT1 cells assessed as residual activity using p-tyramine as substrate at 50 uM at 25 degC
[16] = biological target: T2, Amine oxidase [flavin-containing] A; experiment: Competitive inhibition of MAOA in human SH-SY5Y cells using p-tyramine as substrate preincubated for 5 mins by Lineweaver-Burk plot analysis; assay type: cell-based
[17] = biological target: T2, Amine oxidase [flavin-containing] A; experiment: Inhibition of recombinant human MAO-A expressed in baculovirus infected BT1 cells assessed as residual activity using p-tyramine as substrate at 100 uM after 10 mins; details: read-out: Activity
[18] = biological target: T2, Amine oxidase [flavin-containing] A; experiment: Inhibition of recombinant human MAO-A expressed in baculovirus infected BT1 cells assessed as residual activity using p-tyramine as substrate at 100 uM preincubated for 24 hrs measured after 10 mins; details: read-out: Activity
[19] = biological target: T2, Amine oxidase [flavin-containing] A; experiment: Inhibition of recombinant human MAO-A expressed in baculovirus infected BT1 cells using p-tyramine as substrate at 20 to 240 uM by Lineweaver-Burk plot analysis
[20] = biological target: T2, Amine oxidase [flavin-containing] A; experiment: Inhibition of recombinant human MAO-A expressed in baculovirus infected BT1 cells using p-tyramine as substrate after 20 to 80 mins by Lineweaver-Burk plot analysis
[21] = biological target: T1, Amine oxidase [flavin-containing] B; experiment: biochemical; assay type: cell-based
[22] = biological target: T2, Amine oxidase [flavin-containing] A; experiment: Irreversible inhibition of recombinant human MAO-A expressed in baculovirus infected BT1 cells using p-tyramine as substrate by Lineweaver-Burk plot analysis
[23] = biological target: T1, Amine oxidase [flavin-containing] B; experiment: Activity at recombinant human MAO-B expressed in baculovirus infected BT1 cells assessed as hydrogen peroxide generation rate preincubated for 30 mins by Amplex Red assay relative to control
[24] = biological target: T1, Amine oxidase [flavin-containing] B; experiment: Ratio of relative Vmax to Km for recombinant human MAO-B expressed in baculovirus infected BT1 cells assessed as hydrogen peroxide generation rate preincubated for 30 mins by Amplex Red assay; details: 0.5 h
[25] = biological target: T2, Amine oxidase [flavin-containing] A; experiment: Ratio of relative Vmax to Km for recombinant human MAO-A expressed in baculovirus infected BT1 cells assessed as hydrogen peroxide generation rate preincubated for 30 mins by Amplex Red assay; details: 0.5 h
[26] = biological target: T1, Amine oxidase [flavin-containing] B; experiment: Activity at recombinant human MAO-B expressed in baculovirus infected BT1 cells assessed as hydrogen peroxide generation rate using benzylamine as substrate at 500 uM preincubated for 30 mins by Amplex Red assay relative to control
[27] = biological target: T1, Amine oxidase [flavin-containing] B; experiment: Ratio of relative Vmax to Km for recombinant human MAO-B expressed in baculovirus infected BT1 cells assessed as hydrogen peroxide generation rate using benzylamine as substrate at 500 uM preincubated for 30 mins by Amplex Red assay
[28] = biological target: T1, Amine oxidase [flavin-containing] B; experiment: Activity at recombinant human MAO-B expressed in baculovirus infected BT1 cells assessed as hydrogen peroxide generation rate using benzylamine as substrate at 500 uM preincubated for 30 mins by Amplex Red assay
[29] = biological target: T2, Amine oxidase [flavin-containing] A; experiment: Activity at recombinant human MAO-A expressed in baculovirus infected BT1 cells assessed as hydrogen peroxide generation rate using p-tyramine as substrate at 500 uM preincubated for 30 mins by Amplex Red assay relative to control
[30] = biological target: T2, Amine oxidase [flavin-containing] A; experiment: Ratio of relative Vmax to Km for recombinant human MAO-A expressed in baculovirus infected BT1 cells assessed as hydrogen peroxide generation rate using p-tyramine as substrate at 500 uM preincubated for 30 mins by Amplex Red assay
[31] = biological target: T2, Amine oxidase [flavin-containing] A; experiment: Activity at recombinant human MAO-A expressed in baculovirus infected BT1 cells assessed as hydrogen peroxide generation rate using p-tyramine as substrate at 500 uM preincubated for 30 mins by Amplex Red assay
[32] = biological target: T2, Amine oxidase [flavin-containing] A; experiment: Activity at recombinant human MAO-A expressed in baculovirus infected BT1 cells assessed as hydrogen peroxide generation rate preincubated for 30 mins by Amplex Red assay relative to control

In the case of NCCCNCCCCNCCCNCc1ccc2ccccc2c1, the “fold change (FC)” value [1] is reported as 0.91, the “fold change (FC)” value [2] is reported as 0.52 and the “fold change (FC)” value [3] is reported as 0.81. The Activity [4] was “Not Active”, the “fold change (FC)” value [5] was 0.62 and the Activity [6] was “Not Active”.
NCCCNCCCCNCCCNCc1cccs1 gave a Ki [7] of 23 µM, a Ki [8] of 414 µM and a Ki [9] of 997 µM. The Ki [10] was 226 µM, the “fold change (FC)” value [1] was 0.05 and the “fold change (FC)” value [2] was 0.52. For the same molecule, the “fold change (FC)” value [3] was 0.63, the Activity [4] was “Not Active” and the “fold change (FC)” value [5] was 0.57. The Activity [6] was “Not Active”.
In the case of CN(CCCCCCCCCCCCN=C=S)Cc1ccccc1, the IC50 [11] is reported as 180 µM, the Activity [11] is reported as “Dose-dependent effect” and the “fold change (FC)” value [12] is reported as 0.2. For the same molecule, the “fold change (FC)” value [13] was 0.22, the kinact [14] was 0.00075 s⁻¹ and the kinact [15] was 0.0002 s⁻¹. The Ki [16] was 4.9 µM, the activity at 100 µM [17] was 64% and the activity at 100 µM [18] was 100%. For the same molecule, the “inhibition (INH)” value [19] was “Dose-dependent effect”, the “inhibition (INH)” value [20] was “Dose-dependent effect” and the Ki [21] was 9 µM. It also gave a Ki [22] of 5 µM.
With NCCCOCCCCOCCCNCc1cccs1 the “fold change (FC)” value [23] was 0.19, the “fold change (FC)” value [24] was 0.21 and the “fold change (FC)” value [25] was 0.06. The Km [6] was > 1200 µM.
For C[S+]([O-])CCCCN=C=S (stereo not drawn) [SULFORAPHANE], the IC50 [11] was 20 µM, the “fold change (FC)” value [12] was 1.01 and the “fold change (FC)” value [13] was 0.78.
In the case of C=CCN=C=S [ALLYL ISOTHIOCYANATE], the “fold change (FC)” value [12] is reported as 0.98 and the “fold change (FC)” value [13] is reported as 1.
c1ccc(CNCCCCCCCCCCCCNCc2ccccc2)cc1 showed a Ki [7] of 129 µM, a Ki [8] of 1050 µM and a Ki [9] of 186 µM. The Ki [10] was 55 µM, the “fold change (FC)” value [1] was 0.37 and the “fold change (FC)” value [2] was 0.52. The “fold change (FC)” value [3] was 0.62 and the “fold change (FC)” value [5] was 0.29.
With NCCCCCCCCNCCCNCc1cccs1 the “fold change (FC)” value [1] was 0.75, the “fold change (FC)” value [26] was < 0.01 and the “fold change (FC)” value [27] was < 0.01. The Km [28] was < 0.01 µM, the “fold change (FC)” value [29] was < 0.01 and the “fold change (FC)” value [30] was < 0.01. For the same molecule, the Km [31] was < 0.01 µM, the “fold change (FC)” value [2] was 0.96 and the “fold change (FC)” value [3] was 0.71. For the same molecule, the “fold change (FC)” value [5] was 0.69.
NCCCNCCCCNCCCNCc1ccccc1 showed a Ki [7] of 291 µM, a Ki [8] of 785 µM and a Ki [9] of 188 µM. The Ki [10] was 170 µM, the “fold change (FC)” value [1] was 0.66 and the “fold change (FC)” value [2] was 0.48. The “fold change (FC)” value [3] was 0.97 and the “fold change (FC)” value [5] was 0.38.
With NCCCNCCCCNCCCN [SPERMINE] the “fold change (FC)” value [1] was 0.76, the “fold change (FC)” value [2] was 0.77 and the “fold change (FC)” value [3] was 0.98. For the same molecule, the “fold change (FC)” value [5] was 0.86.
In the case of NCCCCCCCCCCCCNCc1cccs1, the “fold change (FC)” value [23] is reported as 0.53, the “fold change (FC)” value [24] is reported as 12 and the “fold change (FC)” value [32] is reported as 0.1. The “fold change (FC)” value [25] was 0.29.
With NCCCCCCCCCCCCNCc1ccccc1 the IC50 [11] was 327 µM, the Activity [11] was “Dose-dependent effect” and the “fold change (FC)” value [23] was 1. The “fold change (FC)” value [24] was 18.6, the “fold change (FC)” value [32] was 0.08 and the “fold change (FC)” value [25] was 0.4.
In the case of NCCCNCCCCNCCCNCc1cccnc1, the “fold change (FC)” value [1] is reported as 0.72, the “fold change (FC)” value [2] is reported as 0.52 and the “fold change (FC)” value [3] is reported as 0.93. For the same molecule, the Activity [4] was “Not Active”, the “fold change (FC)” value [5] was 0.72 and the Activity [6] was “Not Active”.
With CN(CCCCCCCCCCCCN)Cc1ccccc1 the “fold change (FC)” value [23] was 0.24, the “fold change (FC)” value [24] was 17.5 and the “fold change (FC)” value [32] was 0.03. The “fold change (FC)” value [25] was 0.6.
